Experimental data from paper PMC12635268, “Novel antimicrobial peptides and peptide-microbiome crosstalk in Appalachian salamander skin” (NPJ Biofilms and Microbiomes, 2025).
Values after ≈ are worked out from the molar mass of the structure shown. Where two headings read alike, the source gives them in different places. Ends that are not written are not given here. Peptide text beside a SMILES is read from it.

Tests used:
P. aeruginosa PA01 (Si) = assay: microbe, parasite or virus in culture; assay type: cell-based
Excerpt: Supplement 41522_2025_837_MOESM13_ESM.xlsx, sheet "Table_S13_ESKAPEE-MIC" | column: Bacterial MIC (µg/mL)

K. pneumoniae 4640 = conditions: K. pneumoniae 4640
E. faecium ATCC 49224 = assay: microbe, parasite or virus in culture; conditions: E. faecium 49224
Protocol: (§1) Antimicrobial susceptibility testing of the 20 synthesized peptides against 17 bacterial strains of clinical relevance in the ESKAPEE panel was conducted using minimum inhibitory concentration (MIC) assays following the broth microdilution method outlined by Parker et al.[91]. The ESKAPEE panel is comprised of fourteen American Type Culture Collection (ATCC) strains and three Multidrug Resistant Organism Repository and Surveillance Network (MRSN) bacterial strains. These strains represent at least one drug-susceptible strain and one drug-resistant strain for each bacterium to assess drug efficacy across various resistance mechanisms. This panel is comprised of the following bacterial species and strains: E. faecium (ATCC 19434, ATCC 49224), S. aureus (ATCC 25923, ATCC 43300), K. pneumoniae (ATCC 700603, ATCC 13883, MRSN 1320), A. baumannii (ATCC 17978, ATCC 19606, MRSN 959), P. aeruginosa (ATCC 15692, ATCC 27853, MRSN 5519), E. cloacae (ATCC 13047, ATCC 35549), and E. coli (ATCC 35218, ATCC 43888). Bacteria were grown in cation-adjusted Mueller-Hinton broth (CAMHB) to achieve a final inoculum of 1 × 10⁵ CFU/mL. CAMHB is selected for its batch-to-batch reproducibility, low levels of antimicrobial inhibitors, and ability to support the growth of most bacterial pathogens.
(§2) Briefly, lyophilized peptides were dissolved in 0.2% TFA + 0.4% BSA in water to 2.56 mg/mL, ultrasonicated for 20 min, diluted 10-fold into CAMHB, and then serially diluted 2-fold in 0.02% TFA + 0.04% BSA in CAMHB and assayed at a concentration of 0.25 to 128 μg/mL. Assays were set up using the Tecan Freedom EVO liquid handling robot and software (Tecan, Switzerland) with 50 μL of bacterial inoculum and 50 μL of peptide transferred into round-bottom 96-well microtiter plates. Each plate assay was performed in duplicate and incubated at 37 °C for 20 h without agitation. Bacterial growth was assessed using the BIOMIC V3 Image Analysis system (Giles Scientific, USA) and the MIC values were determined visually according to the Clinical and Laboratory Standards Institute (CLSI) guidelines.

P. aeruginosa ATCC 27853 = assay: microbe, parasite or virus in culture
Protocol: as §1, §2

A. baumannii ATCC 17978 = assay: microbe, parasite or virus in culture; conditions: A. baumannii 17978
Protocol: as §1, §2

E. coli ATCC 43888 = assay: microbe, parasite or virus in culture
Protocol: as §1, §2

E. cloacae ATCC 13047 = assay: microbe, parasite or virus in culture; conditions: E. cloacae 13047
Protocol: as §1, §2

S. aureus ATCC 43300 = assay: microbe, parasite or virus in culture; conditions: S. aureus 43300
Protocol: as §1, §2

E. faecium ATCC 19434 = assay: microbe, parasite or virus in culture; conditions: E. faecium 19434
Protocol: as §1, §2

[1] = test system: K. pneumoniae ATCC 700603; assay: microbe, parasite or virus in culture; conditions: K. pneumoniae 700603
Protocol: as §1, §2

P. aeruginosa MRSN 5519 = assay: microbe, parasite or virus in culture; conditions: P. aeruginosa 5519
Protocol: as §1, §2

A. baumannii ATCC 19606 = assay: microbe, parasite or virus in culture; conditions: A. baumannii 19606
Protocol: as §1, §2

E. coli ATCC 35218 = assay: microbe, parasite or virus in culture
Protocol: as §1, §2

E. cloacae ATCC 35549 = assay: microbe, parasite or virus in culture; conditions: E. cloacae 35549
Protocol: as §1, §2

S. aureus ATCC 25923 = assay: microbe, parasite or virus in culture
Protocol: as §1, §2

K. pneumoniae ATCC 13883 = assay: microbe, parasite or virus in culture; conditions: K. pneumoniae 13883
Protocol: as §1, §2

P. aeruginosa PA01 = assay: microbe, parasite or virus in culture; assay type: cell-based; conditions: 20 h
Protocol: as §1, §2

[2] = set-up: method as in Biomatik (vendor); conditions: 1.0 mg peptide in 1.0 ml solvent; peptides synthesized by Biomatik; ref Biomatik (vendor); cited from earlier work
[3] = test system: Batrachochytrium dendrobatidis Bd-GPL strain JEL404; conditions: slope of growth, positive = inhibition, negative = no inhibition
Protocol: Bd-peptide challenge assays were conducted with the crude peptides extracted from the salamander skin secretions and with the 20 synthesized peptides. We followed methods by Pereria et al.[49] to conduct assays with the crude peptides using Bd-GPL strain JEL404 at 1 × 10^6 zoospores/mL. Briefly, skin peptide samples were pooled together based on species-site-injection (Table 1). Skin peptides samples were serially diluted 2-fold in MilliQ (Ultrapure Type 1) water and assayed at a concentration of 2.35–75 μg/mL based on starting peptide concentration available. For synthesized peptides, we conducted assays from 15.6 to 500 μg/ml. In both assays, we quantified percent inhibition of each well using slope of growth[90] in which positive values indicate inhibition and negative values indicate no inhibition.

[4] = CAMHB, 1 × 10⁵ CFU/mL, 0.25 to 128 μg/mL, 37 °C 20 h, duplicate, read visually (CLSI)

Compound: CC[C@H](C)[C@H](NC(=O)[C@H](CO)NC(=O)[C@H](Cc1ccc(O)cc1)NC(=O)[C@H](CS)NC(=O)CNC(=O)[C@H](C)NC(=O)[C@H](CCCNC(=N)N)NC(=O)[C@H](CCCNC(=N)N)NC(=O)[C@H](Cc1ccc(O)cc1)NC(=O)[C@H](CS)NC(=O)[C@H](CCCCN)NC(=O)[C@H](Cc1c[nH]c2ccccc12)NC(=O)[C@@H]1CCCN1C(=O)[C@H](CCCNC(=N)N)NC(=O)[C@H](C)NC(=O)[C@H](CCCNC(=N)N)NC(=O)[C@H](CCCNC(=N)N)NC(=O)[C@@H](NC(=O)[C@H](CCCNC(=N)N)NC(=O)[C@@H](NC(=O)[C@H](CCCNC(=N)N)NC(=O)[C@H](CCCCN)NC(=O)[C@@H](N)CO)[C@@H](C)O)C(C)C)C(=O)N[C@H](C(=O)NCC(=O)N[C@@H](CCSC)C(=O)N[C@@H](Cc1ccccc1)C(=O)N[C@@H](CCCCN)C(=O)N[C@@H](CCCCN)C(=O)N[C@@H](CO)C(=O)O)[C@@H](C)CC [Pcin-CATH5] (H-SKRTRVRRARPWKCYRRAGCYSIIGMFKKS-OH; N-terminus and C-terminus assumed)
- Bacterial MIC (P. aeruginosa PA01 (Si); Si): 8 to 16 mg/L
- MIC (K. pneumoniae 4640; [4]): >128 mg/L
- MIC (E. faecium ATCC 49224; [4]): 64 mg/L (≈ 17.5 µM)
- MIC (P. aeruginosa ATCC 27853; ATCC 27853, 20 h): >128 mg/L
- MIC (A. baumannii ATCC 17978; [4]): 8 mg/L (≈ 2.18 µM)
- Bacterial MIC (E. coli ATCC 43888; ATCC 43888, 20 h): 16 mg/L
- MIC (E. cloacae ATCC 13047; [4]): >128 mg/L
- MIC (S. aureus ATCC 43300; [4]): 64 mg/L (≈ 17.5 µM)
- MIC (E. faecium ATCC 19434; [4]): 64 mg/L (≈ 17.5 µM)
- MIC [1, 4]: >128 mg/L
- MIC (P. aeruginosa MRSN 5519; [4]): >128 mg/L
- MIC (A. baumannii ATCC 19606; [4]): 8 mg/L (≈ 2.18 µM)
- Bacterial MIC (E. coli ATCC 35218; ATCC 35218, 20 h): 16 to 32 mg/L
- MIC (E. coli ATCC 35218; ATCC 35218, 20 h): 32 mg/L (≈ 8.74 µM)
- MIC (E. cloacae ATCC 35549; [4]): >128 mg/L
- Bacterial MIC (S. aureus ATCC 25923; ATCC 25923, 20 h): 128 mg/L
- MIC (S. aureus ATCC 25923; ATCC 25923, 20 h): >128 mg/L
- MIC (K. pneumoniae ATCC 13883; [4]): >128 mg/L
- MIC (P. aeruginosa PA01): 16 mg/L (≈ 4.37 µM)
- Suggest solvent (solubility) [2]: 1.0mg peptide soluble in 1.0ml H2O
- MIC (A. baumannii 5075; [4]): 4 mg/L (≈ 1.09 µM)

Compound: NRKGPRPPGFSPFR [PrAd-Eb9]
- Bacterial MIC (P. aeruginosa PA01 (Si); P. aeruginosa PA01 (Si), not typical ESKAPEE strain, Week 1 (12/6/2023)): >128.000 mg/L
- Bd inhibition score (percent inhibition), mean ([3]; synthesized peptide 15.625 μg/mL): -120.796%
- Bd inhibition score (percent inhibition), mean ([3]; synthesized peptide 31.25 μg/mL): -129.548%
- Bd inhibition score (percent inhibition), mean ([3]; synthesized peptide 62.5 μg/mL): -134.776%
- Bd inhibition score (percent inhibition), mean ([3]; synthesized peptide 125 μg/mL): -156.474%
- Bd inhibition score (percent inhibition), mean ([3]; synthesized peptide 250 μg/mL): -160.396%
- Bd inhibition score (percent inhibition), mean ([3]; synthesized peptide 500 μg/mL): -188.605%
- Bacterial MIC (K. pneumoniae 4640; Week 1 (12/6/2023)): >128.000 mg/L
- Bacterial MIC (E. faecium ATCC 49224; Week 1 (12/6/2023)): >128.000 mg/L
- Bacterial MIC (P. aeruginosa ATCC 27853; P. aeruginosa 27853, Week 1 (12/6/2023)): >128.000 mg/L
- Bacterial MIC (A. baumannii ATCC 17978; Week 1 (12/6/2023)): >128.000 mg/L
- Bacterial MIC (E. coli ATCC 43888; E. coli 43888, Week 1 (12/6/2023)): >128.000 mg/L
- Bacterial MIC (E. cloacae ATCC 13047; Week 1 (12/6/2023)): >128.000 mg/L
- Bacterial MIC (S. aureus ATCC 43300; Week 1 (12/6/2023)): >128.000 mg/L
- Bacterial MIC (E. faecium ATCC 19434; Week 1 (12/6/2023)): >128.000 mg/L
- Bacterial MIC ([1]; Week 1 (12/6/2023)): >128.000 mg/L
- Bacterial MIC (P. aeruginosa MRSN 5519; Week 1 (12/6/2023)): >128.000 mg/L
- Bacterial MIC (A. baumannii ATCC 19606; Week 1 (12/6/2023)): >128.000 mg/L
- Bacterial MIC (E. coli ATCC 35218; E. coli 35218, Week 1 (12/6/2023)): >128.000 mg/L
- Bacterial MIC (E. cloacae ATCC 35549; Week 1 (12/6/2023)): >128.000 mg/L
- Bacterial MIC (S. aureus ATCC 25923; S. aureus 25923, Week 1 (12/6/2023)): >128.000 mg/L
- Bacterial MIC (K. pneumoniae ATCC 13883; Week 1 (12/6/2023)): >128.000 mg/L
- Suggest solvent (solubility) [2]: 1.0mg peptide soluble in 1.0ml H2O
- Bacterial MIC (A. baumannii 5075; Week 1 (12/6/2023)): >128.000 mg/L
